Data reported in patent US20150183846A1, “HUMAN FUSION PROTEINS COMPRISING SINGLE CHAIN TNFALPHA AND TARGETING DOMAINS” (Scil Proteins GmbH, priority 2012, published 2015).
Entries after “also recorded” stand apart in the source; their conditions may differ.

Assays:
[1] = In vivo toxicity study in naive CD1 mice, single intravenous dose; conditions: i.v., mTNFalpha 470 μg/kg equimolar to 650 μg/kg 64177
Method: Two groups of 3 male and 3 female mice for each treatment dose were recruited. One group of 3 male and 3 female mice for each treatment dose was sacrificed 24 h after the intravenous administration to obtain information on acute TNFalpha mediated effects. […] Parameters that were analyzed are: clinical signs (local tolerance, systemic tolerance, mortality, behavior, external appearance, faeces), body weight, body temperature, food consumption, hematology, clinical chemistry, macroscopic post mortem findings, organ weights and histopathology of dedicated organs.

[2] = test system: MDA-MB 231 tumor; assay: In vivo efficacy study in breast cancer (MDA-MB 231) tumor bearing mice, combination with Lipodox; parameters: species or system mouse
Description: The efficacy study is intended to analyze the effect of targeted fusion protein 83564 combined with a chemotherapeutic on the tumor size in a breast cancer model. As model system for the in vivo efficacy study, the breast cancer cell line MDA-MB 231 (ATCC® HTB-26™; patient derived model, obtained from ATCC) was used. Cells were implanted subcutaneously in the left flank of female immunodeficient NMRI nu/nu mice from Harlan. For this study, Lipodox was used as exemplary cytotoxic drug; any other cytotoxic agents could be used instead. The chemotherapeutic Lipodox from Sun Pharma Global FZE is composed of doxorubicin hydrochloride encapsulated in long circulating pegylated liposomes. It is indicated as monotherapy for the treatment of metastatic breast cancer with increased cardiac risk.
In order to show the efficacy of Affilin-scTNFalpha-fusion protein 83564, mice carrying an MDA-MB 231 tumor with an initial size between 50 mm^3 and 200 mm^3 were intravenously treated with 75 μg/kg/day 83564 combined with Lipodox at a dose of 1.5 mg/kg/day (closed squares in FIG. 8). As control substance, 75 μg/kg/day 64179 (Affilin-scTNFalpha-fusion protein without targeting) combined with Lipodox at a dose of 1.5 mg/kg/day was injected intravenously into separate mice (closed circles in FIG. 8). […] During the whole efficacy study, the relative tumor volume was analyzed.

[3] = test system: NHDF cells; assay: Binding (staining) on vital NHDF cells; assay type: cell-based, human; conditions: NHDF cells (low ED-B), up to 10 nM
Method: (§1) ED-B is expressed in tumors and the matrix on embryonic cells. The binding of the cancer target-binding protein fused to scTNFalpha to the matrix of cell culture cells was compared to the binding of the control and non-targeting domain protein fused to scTNFalpha (64179). Different cell culture cells were analyzed, including normal human fetal lung fibroblast cells having high expression levels of ED-B (Wi38 cells), and normal human dermal fibroblasts having low level of ED-B (NHDF). To analyze the in vitro binding, 64177, 83563, 83564 and 64179 were investigated on vital Wi38 cells.
(§2) Fusion proteins (single concentration of 1, 5 and 10 nM) or control protein 64179 (1, 5 and 10 nM) were incubated (1 h, 37° C.) with Wi38 and NHDF cells (60,000 cells/ml; from ATCC), followed by fixation with methanol, blocking (5% Horse serum/PBS); incubation with an anti-TNFalpha-antibody (Peprotech 500-P64, 1:500) and additionally with a secondary Alexa488 conjugated antibody (obtained from Invitrogen A11008, 1:1000). The nuclei were stained with DAPI.

[4] = test system: Wi38 cells; assay: Binding (staining) on vital Wi38 fibroblast cells; assay type: cell-based, human; conditions: Wi38 cells (high ED-B), up to 10 nM, anti-TNFalpha-antibody detection
Method: as §1, §2

[5] = test system: F9-tumor tissue; assay: Binding on F9 teratocarcinoma tumor slices; parameters: species or system mouse
Method: ED-B accumulates around neovascular structures, like tumor blood vessels (Tarli et al., 1999, Blood 94: 192-198). Different concentrations of fusion proteins were compared with respect to ED-B target binding on F9 teratocarcinoma slides. Slices of a thickness of 6 μm were fixed with ice cold absolute acetone. After blocking with 5% horse serum, slices were incubated with 1, 5 and 10 nM of fusion proteins 64177, 83563, 83564 and the non-ED-B targeted protein 64179, respectively. Fusion proteins were probed by anti-TNFalpha-antibody (Peprotech 500-P64, 1:500) and additional with a secondary Alexa488 conjugated antibody (Invitrogen, A11008, 1:1000). CD31 (PECAM-1) is a widely used endothelial cell marker. Therefore, vessels were stained by use of an anti-mouse CD31-antibody (10 μg/ml; Abcam, ab56299) and an Alexa594-conjugated secondary antibody.

[6] = test system: L929 cells; assay: L929 apoptosis (cytotoxicity) assay of TNFalpha activity; assay type: cell-based; conditions: actinomycin D sensitized cells, 24 h
Description: The physiological TNFalpha-activity of an Affilin-scTNF-fusion protein has been determined using the L929 apoptosis assay (Flick et al., 1984 J. Immunol. Methods. 68:167-175). In this assay, the effector part of the fusion protein (scTNFalpha, three soluble TNFalpha monomers connected via peptide linkers) efficiently stimulates cell death in actinomycin D sensitized cells at EC50 values in the picomolar range.
Cells were resuspended in suitable medium containing FBS and antibiotics. A cell suspension of a density of 3.5×10^5 cells/ml in medium containing 2% FCS was seeded into the wells of a 96 well standard cell culture plate. After incubation, the culture medium was removed and medium containing 4% FBS, Actinomycin D and antibiotics was added to each well. […] After a further incubation of 24 h, the metabolic activity as a measure of cell survival was determined using WST-1 reagent (Roche). […] The quantitative evaluation is based on the relative potency against a mTNFalpha-standard.
In this embodiment, an L929 assay was used as activity assay versus mouse TNFalpha as internal standard (mTNFalpha in the figure). […] Potency has been determined in several independent assays and is determined by parallel line method with PLA2.0 software relative to the internal control mTNFalpha. […]

Substance | incidence and/or severity of toxic effects, mTNFalpha- versus 64177-treated animals [1] | relative tumor volume at day 28 ([2]; 75 μg/kg/day fusion protein i.v. combined with Lipodox 1.5 mg/kg/day) [mm^3] | effect on tumor growth compared with the other groups ([2]; fusion protein combined with Lipodox 1.5 mg/kg/day) | staining on vital NHDF cells [3] | staining of ED-B on vital Wi38 cells [4] | accumulation close to F9-tumor vessels (co-staining with anti-CD31) ([5]; 1 nM fusion protein) | binding on F9-tumor tissue slices ([5]; 1 nM, 5 nM and 10 nM) | activity of the scTNFalpha part relative to mouse TNFalpha internal standard [6]
mTNFalpha: murine recombinant TNFalpha used as internal standard and reference item [reference compound] | generally more pronounced | – | – | – | – | – | – | –
64179: control fusion protein of a non-binding ubiquitin dimer (Ub2) and mouse scTNFalpha (SEQ ID NO: 16) [compound 64179, reference compound] | – | 651 | had the effect on growth of breast cancer as Lipodox alone | not detectable | No unspecific staining; also recorded: not detectable | no accumulation in F9-tumor vessels | not detected | at least the same activity compared to the mouse TNFalpha
